The assay addresses T1, hTLR8 (Homo sapiens, UniProt Q9NR97).
T1 construct: host or cells: HEK293 cells stably transfected with hTLR8
T1 sequence (Q9NR97 27-1041): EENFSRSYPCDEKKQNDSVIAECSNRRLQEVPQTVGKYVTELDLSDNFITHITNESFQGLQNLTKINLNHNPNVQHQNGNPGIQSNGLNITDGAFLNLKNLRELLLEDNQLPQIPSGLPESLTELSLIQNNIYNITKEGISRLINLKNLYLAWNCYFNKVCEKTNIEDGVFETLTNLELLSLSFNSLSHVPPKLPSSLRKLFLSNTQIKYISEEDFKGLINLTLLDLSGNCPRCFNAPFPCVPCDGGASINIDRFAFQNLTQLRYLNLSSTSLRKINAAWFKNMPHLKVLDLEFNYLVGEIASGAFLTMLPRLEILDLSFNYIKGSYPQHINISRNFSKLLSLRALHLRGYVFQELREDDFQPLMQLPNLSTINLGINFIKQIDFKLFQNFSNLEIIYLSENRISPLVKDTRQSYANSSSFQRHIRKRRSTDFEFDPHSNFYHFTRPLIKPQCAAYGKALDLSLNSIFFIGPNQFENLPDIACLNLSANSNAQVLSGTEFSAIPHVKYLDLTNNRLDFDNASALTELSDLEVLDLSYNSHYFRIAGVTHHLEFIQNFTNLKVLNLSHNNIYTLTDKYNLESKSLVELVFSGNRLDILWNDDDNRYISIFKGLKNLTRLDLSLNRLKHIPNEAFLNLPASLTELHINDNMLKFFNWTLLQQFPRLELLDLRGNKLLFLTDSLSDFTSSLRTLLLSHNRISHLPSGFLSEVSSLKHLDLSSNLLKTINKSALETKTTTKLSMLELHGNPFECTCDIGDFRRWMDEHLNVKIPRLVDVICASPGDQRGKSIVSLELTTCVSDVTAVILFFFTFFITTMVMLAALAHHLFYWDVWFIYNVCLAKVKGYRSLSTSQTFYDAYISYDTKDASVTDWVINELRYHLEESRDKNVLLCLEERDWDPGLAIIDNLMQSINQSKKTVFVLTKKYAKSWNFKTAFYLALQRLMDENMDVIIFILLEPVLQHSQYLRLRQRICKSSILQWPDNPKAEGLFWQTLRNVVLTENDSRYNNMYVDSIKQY
Nature of the assay: HEK-293 hTLR8 transfectant NF-κB SEAP reporter antagonist assay. The format is cell-based. The following applies: for inhibition at 25 µM: HEK293, TLR8 antagonist activity at 25 μM (in some cases assessed at lower concentrations). As for the experimental part: The HEK-293 hTLR transfectant assay employs HEK293 cells stably transfected with various hTLRs and transiently co-transfected with a plasmid containing an NF-κB driven secreted embryonic alkaline phosphate (SEAP) reporter gene. Stimulation of TLRs activates their downstream signaling pathways and induces nuclear translocation of the transcription factor NF-κB. Reporter gene activity is then measured using a spectrophotometric assay.
For the TLR8 antagonist assays, cells are transiently transfected with the reporter gene on Day 1 per the supplier's instructions. Antagonist compounds are added to the cultures on Day 2 followed by addition of a TLR8 agonist approximately 2 hours later. Cultures are incubated overnight and SEAP activity is measured on Day 3.
In a typical assay, 50,000 HEK239 hTLR8 cells are seeded per culture well and transiently transfected with the SEAP reporter gene. Antagonists are added to cultures in culture medium and […] DMSO over a concentration range of 0.1 nanomolar to 10 micromolar. TLR8 agonists are added to cultures 2 hours later at a fixed concentration (e.g., 1 micromolar or 10 micromolar of Compound A) and cultures are then incubated for 16-24 hrs at 37° C. in a humidified CO incubator. Antagonists are also evaluated for activity in the absence of agonist.
TLR8 antagonist activity at 25 μM is presented in Table 2, where + denotes a % inhibition of 20-39, ++ denotes a % inhibition of 40-59, +++ denotes a % inhibition of 60-79 and ++++ denotes a % inhibition of 80-99. In some cases, antagonist activity was assessed at lower concentrations, for example, at 8.3, 2.8, or less than 1 μM.
TLR8 antagonist activity was measured in a hTLR8 assay format, measuring IC50 values. Compounds were incubated with hTLR8 reporter cells for two hours, then 1 μM Compound A was added to induce TLR8 overnight. IC50 were then calculated.

The mark [1] stands for this setting: hTLR8 reporter cells, 2 h preincubation, then 1 μM Compound A overnight, read-out: IC50.
Setting [2] is: IC50, nM, vs. VTX-378 1 μM, agonist VTX-378 at 1 μM.
[3] abbreviates: IC50, nM, vs. VTX-378 10 μM, agonist VTX-378 at 10 μM.
[4] abbreviates: agonist VTX-378 at 0.5 μM, read-out: IC50, nM, vs. VTX-378 0.5 μM.

Molecules are shown by their SMILES. Read-outs that look alike come from different tables or passages of the source.

One may read the IC50 as the point on the concentration scale where inhibition reaches its midpoint. On to `CCCN(CCC)C(=O)C1=Cc2cc(OC)c(-c3ccc(C(=O)N(CCC)CCC)cc3)cc2N=C(N)C1` [Compound 12, (1E,4E)-2-Amino-8-(4-(dipropylcarbamoyl)phenyl)-7-methoxy-N,N-dipropyl-3H-benzo[b]azepine-4-carboxamide], for which the IC50 under setting [1] was in the range of 1000 to 5000 nM. Usually inhibition stands for the relative decrease from the control value, in per cent. For `CCCN(CCCO)C(=O)C1=Cc2cc(OC)c(-c3ccc(C(=O)N4CCCC4)cc3)cc2N=C(N)C1` [Compound 25, (1E,4E)-2-Amino-N-(3-hydroxypropyl)-7-methoxy-N-propyl-8-(4-(pyrrolidine-1-carbonyl)phenyl)-3H-benzo[b]azepine-4-carboxamide], the inhibition at 25 µM lay in the range of 20 to 39%. Regarding `CCCN(CCC)C(=O)C1=Cc2ccc(-c3ccc(C(=O)N4CCCC4)cc3)cc2N=C(NN)C1` [Compound 33, (1E,4E)-2-Hydrazinyl-N,N-dipropyl-8-(4-(pyrrolidine-1-carbonyl)phenyl)-3H-benzo[b]azepine-4-carboxamide], the inhibition at 25 µM lay within 80 to 99%. For the same molecule, the concentration for half-maximal inhibition (IC50) under setting [1] is 1000 to 5000 nM. As to `CCCN(CCCO)C(=O)C1=Cc2ccc(-c3ccc(C(=O)N4CCCC4)cc3)cc2N=C(NC)C1` [Compound 46, (1E,4E)-N-(3-Hydroxypropyl)-2-(methylamino)-N-propyl-8-(4-(pyrrolidine-1-carbonyl)phenyl)-3H-benzo[b]azepine-4-carboxamide], the inhibition at 25 µM was in the range of 40 to 59%.

For the molecule `CCCN(CCCO)C(=O)C1=Cc2ccc(-c3ccc(C(=O)N4CCCC4)cc3)cc2N=C(NCCN(C)C)C1` [Compound 47, (1E,4E)-2-(2-(Dimethylamino)ethylamino)-N-(3-hydroxypropyl)-N-propyl-8-(4-(pyrrolidine-1-carbonyl)phenyl)-3H-benzo[b]azepine-4-carboxamide], the inhibition at 25 µM was 20 to 39%. On to `CCOC(=O)C1=Cc2cc(-c3ccc(C(=O)N4CCCC4)cc3)ccc2N=C(N)C1` [Compound 63, (1E,4E)-Ethyl 2-amino-7-(4-(pyrrolidine-1-carbonyl)phenyl)-3H-benzo[b]azepine-4-carboxylate], for which the inhibition at 25 µM was in the range of 80 to 99%. The IC50 under setting [1] is less than 1000 nM. For `CCCN(CCC)C(=O)C1=Cc2cc(OC)c(-c3ccc(C(=O)N4CCCC4)cc3)cc2N=C(N)C1` [Compound 65, (1E,4E)-2-Amino-7-methoxy-N,N-dipropyl-8-(4-(pyrrolidine-1-carbonyl)phenyl)-3H-benzo[b]azepine-4-carboxamide] the same measures were 60 to 79% and 5000 to 10000 nM. On to `CCCN(CCC)C(=O)C1=Cc2cc(OC)ccc2N=C(N)C1` [Compound 70, (1E,4E)-2-amino-7-methoxy-N,N-dipropyl-3H-benzo[b]azepine-4-carboxamide], for which the inhibition at 25 µM fell in the range of 40 to 59%. On to `CCOC(=O)C1=Cc2cc(OCc3ccccn3)ccc2N=C(N)C1` [Compound 74, (1E,4E)-ethyl 2-amino-7-(pyridin-2-ylmethoxy)-3H-benzo[b]azepine-4-carboxylate], for which the inhibition at 25 µM lay within 60 to 79%. Moreover, the IC50 under setting [1] fell in the range of 1000 to 5000 nM. For `CCOC(=O)C1=Cc2cc(OC)c(-c3ccc(C(=O)N4CCCC4)cc3)cc2N=C(N)C1` [Compound 76, (1E,4E)-ethyl 2-amino-7-methoxy-8-(4-(pyrrolidine-1-carbonyl)phenyl)-3H-benzo[b]azepine-4-carboxylate] the same measures were 80 to 99% and no less than 10000 nM. For `CCOC(=O)N1Cc2ccc(-c3ccc(C(=O)N4CCCC4)cc3)cc2N=C(N)C12CC2` [Compound 88, (E)-Ethyl 2-amino-8-(4-(pyrrolidine-1-carbonyl)phenyl)spiro[benzo[e][1,4]diazepine-3,1′-cyclopropane]-4(5H)-carboxylate] the same measures were 20 to 39% and 5000 to 10000 nM.

In the case of `CCOC(=O)C1=Cc2ccc(-c3ccc(C(=O)N4CCCC4)cc3)cc2N2CCN=C2C1` [Compound 90, (E)-ethyl 9-(4-(pyrrolidine-1-carbonyl)phenyl)-2,4-dihydro-1H-benzo[f]imidazo[1,2-a]azepine-5-carboxylate], the inhibition at 25 µM is 60 to 79%. For `CCOC(=O)C1=Cc2cc(-c3ccc(C(=O)N4CCCC4)cc3)ccc2-n2ccnc2C1` [Compound 2919], the IC50 by setting is: under setting [2], no less than 10000 nM; under setting [3], no less than 10000 nM. Consider `CCOC(=O)C1=Cc2cc(-c3ccc(C(=O)N4CCCC4)cc3)ccc2N=C(NC)C1` [Compound 2922], for which the IC50 was 1000 to 10000 nM under setting [2] and no less than 10000 nM under setting [3]. On to `CCOC(=O)C1=Cc2cc(-c3ccc(C(=O)N4CCCC4)cc3)ccc2N=C(NN(C)C)C1` [Compound 2926], for which the IC50 reads like this: under setting [2], 1000 to 10000 nM; under setting [3], no less than 10000 nM. For `CCOC(=O)C1=Cc2cc(-c3ccc(C(=O)N4CCCC4)cc3)ccc2N=C(N(C)C)C1` [Compound 2929] the same measures were no less than 10000 nM and no less than 10000 nM. As for `COC(=O)C1=Cc2cc(-c3ccc(C(=O)N4CCCC4)cc3)ccc2N=C(N)C1` [Compound 2931], the IC50 under setting [2] is less than 1000 nM and the IC50 under setting [3] is 1000 to 10000 nM. For `CCOC(=O)N1CC(N)=Nc2ccc(-c3ccc(C(=O)N4CCCC4)cc3)cc2C1` [Compound 2954] the same measures were no less than 10000 nM and no less than 10000 nM. Turning to `CCOC(=O)C1=Cc2cc(-c3ccc(C(=O)N4CCCC4)cc3)ccc2N=C(NN)C1` [Compound 2962], the IC50 under setting [2] was no less than 10000 nM and the IC50 under setting [3] is no less than 10000 nM. As for `CCOC(=O)C1=Cc2cc(-c3ccc(C(=O)N4CCCC4)cc3)ccc2N2CCN=C2C1` [Compound 2966], the IC50 is no less than 10000 nM under setting [2] and no less than 10000 nM under setting [3]. `CCOC(=O)C1=Cc2cc(-c3ccc(C(=O)N4CCCC4)cc3)ccc2-n2cnnc2C1` [Compound 2976]: the IC50 reads like this: under setting [2], no less than 10000 nM; under setting [3], no less than 10000 nM. In the case of `CC(C)OC(=O)C1=Cc2cc(-c3ccc(C(=O)N4CCCC4)cc3)ccc2N=C(N)C1` [Compound 2984], the IC50 is, setting by setting: under setting [2], less than 1000 nM; under setting [3], 1000 to 10000 nM. For `CN(C)C(=O)C1=Cc2cc(-c3ccc(C(=O)N4CCCC4)cc3)ccc2N=C(N)C1` [Compound 2986] the same measures were less than 1000 nM and no less than 10000 nM. For `CCOC(=O)C1=Cc2cc(-c3ccc(C(=O)N4CCCC4)cc3)ccc2-n2c(n[nH]c2=O)C1` [Compound 3000] the same measures were no less than 10000 nM and no less than 10000 nM. For `CCOC(=O)N1Cc2cc(-c3ccc(C(=O)N4CCCC4)cc3)ccc2N=C(N)C12CC2` [Compound 3020] the same measures were no less than 10000 nM and no less than 10000 nM.

`CCOC(=O)C1=Cc2cc(-c3ccc(C(=O)N4CCCC4)cc3)ccc2N=C(N)C1C` (stereo not shown) [Compound 3173]: the IC50 is less than 1000 nM under setting [2] and less than 1000 nM under setting [4]. For the molecule `CCOC(=O)C1=Cc2cc(-c3ccc(C(=O)N4CCCC4)cc3)ccc2N=C(N)C12CC2` [Compound 3260], the IC50 is, setting by setting: (IC50, nM, vs. 3M002 10 μM, agonist 3M002 at 10 μM) less than 1000 nM; under setting [2], less than 1000 nM; under setting [4], less than 1000 nM.

The record behind these values is patent publication US20140088085A1, “Substituted Benzoazepines As Toll-Like Receptor Modulators” (ARRAY BIOPHARMA, INC, priority 2011, published 2014).
